The structures appear in SMILES notation. pEC50, pIC50: −log10 of the molar value.

For one assay, the system named is HDAC. The following applies: Richon et al. 1998; cited from earlier work.
For a further assay, the system named is rat fibroblasts. To be noted: Yoshida and Beppu 1988; cited from earlier work.
Another assay has as its system cell growth. To be noted: Finnin et al. 1999; cited from earlier work.
The subject of another assay is tumors. To be noted: Finnin et al. 1999; cited from earlier work.
Assay [1] concerns acetylated histone H-4 in T24 human bladder cancer cells. Briefly: Histone H4 acetylation in whole cells by immunoblots. Format: cell-based. To be noted: T-24, read-out: EC50, concentration effective for reducing the acetylated H-4 signal by 50%, T24 cells, 16 hours incubation, immunoblot densitometry. How it is done:
T24 human bladder cancer cells growing in culture were incubated with HDAC inhibitors for 16 hours. Histones were extracted from the cells after the culture period as described by M. Yoshida et al. (J. Biol. Chem. 265(28): 17174-17179 (1990)). 20 μg of total histone protein was loaded onto SDS/PAGE and transferred to nitrocellulose membranes. Membranes were probed with polyclonal antibodies specific for acetylated histone H-4 (Upstate Biotech Inc.), followed by horse radish peroxidase conjugated secondary antibodies (Sigma). Enhanced Chemiluminescence (ECL) (Amersham) detection was performed using Kodak films (Eastman Kodak). Acetylated H-4 signal was quantified by densitometry.

The target of assay [2] is T1, recombinant human HDAC-1 enzyme (rHDAC-1) (Homo sapiens, UniProt Q13547).
T1 construct: made in house; host or cells: Baculovirus insect cell expression system
Nature of the assay: Histone deacetylase inhibition, recombinant human HDAC-1. Format: biochemical. The following applies: cloned recombinant human HDAC-1, Baculovirus insect cell expression; read-out: rHDAC-1 IC50. Summed up:
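Recombinant human HDAC-1 or pooled HDACs from H446 nuclear extracts were preincubated with compounds for 30 min at 4 °C before the reaction. Released [3H]-acetic acid was extracted with ethyl acetate after acid stop and counted by scintillation. IC50 was the concentration giving half-maximal inhibition from dose-response curves.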

In assay [3] the test system is histone deacetylase enzyme in nuclear extracts from H446 cells (pooled HDACs). Briefly: Histone deacetylase inhibition, H446 nuclear extracts (pooled HDACs). Format: biochemical, human. To be noted: for pIC50: H446 nuclear extract, [3H]-acetylated histone substrate. The method, boiled down:
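Nuclear extract (30 μg) of human small cell lung cancer H446 cells, preincubated with compound 30 min at 4° C, then reacted 10 min at 37° C with [3H]-acetylated histone substrate (20,000 cpm). Released [3H]-acetic acid extracted with ethyl acetate and counted; IC50 as concentration giving half-maximal inhibition from dose-response curves.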

Assay [4] deals with A549 human lung carcinoma cells. Nature of the assay: Antineoplastic effect on A549 tumors in nude mice. The following applies: A549 xenograft, daily injection about 10 to about 50 mg/kg, 21 days. Format: in vivo, BALB/c nude mice. How it is done:
Eight to ten week old female BALB/c nude mice (Taconic Labs, Great Barrington, N.Y.) were injected subcutaneously in the flank area with 2×10^6 preconditioned A549 human lung carcinoma cells. Preconditioning of these cells was accomplished by a minimum of three consecutive tumor transplantations in the same strain of nude mice. Subsequently, tumor fragments of approximately 30 mgs were excised and implanted subcutaneously in mice, in the left flank area, under isoflurane anesthesia (Abbott Labs, Geneva, Switzerland). When the tumors reached a mean volume of 100 mm^3, the mice were treated intravenously, subcutaneously or intraperitoneally, by daily injection of a solution of the inhibitor in an appropriate vehicle such as PBS, DMSO/water, or Tween 80/water, at a dose from about 10 mg/kg to about 50 mg/kg, for 21 days. Tumor volume was calculated every second day post infusion according to standard methods (e.g., Meyer et al., Int. J. Cancer 43: 851-856 (1989)).

T1 sequence (Q13547 whole entry): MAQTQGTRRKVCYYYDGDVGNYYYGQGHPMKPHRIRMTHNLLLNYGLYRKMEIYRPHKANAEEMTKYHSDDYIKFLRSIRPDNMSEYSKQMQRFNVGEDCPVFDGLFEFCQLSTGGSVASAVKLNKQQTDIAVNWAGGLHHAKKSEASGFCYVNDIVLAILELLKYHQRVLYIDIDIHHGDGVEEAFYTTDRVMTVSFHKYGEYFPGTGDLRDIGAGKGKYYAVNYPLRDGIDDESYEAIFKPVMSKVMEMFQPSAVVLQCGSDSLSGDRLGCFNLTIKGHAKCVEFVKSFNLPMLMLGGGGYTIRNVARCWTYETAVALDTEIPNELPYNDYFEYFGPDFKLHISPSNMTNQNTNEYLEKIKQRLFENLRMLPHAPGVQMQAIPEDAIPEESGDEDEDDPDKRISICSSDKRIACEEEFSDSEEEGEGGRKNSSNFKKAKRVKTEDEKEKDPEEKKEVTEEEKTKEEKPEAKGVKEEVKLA

Consider `CC(/C=C/C(=O)NO)=C\[C@@H](C)C(=O)c1ccc(N(C)C)cc1` [TSA, trichostatin A], for which, in the assay on HDAC, the HDAC activity entry is “inhibited”. The cell cycle arrest entry in the assay with rat fibroblasts is “causes arrest of rat fibroblasts at the G1 and G2 phases of the cell cycle”. In addition, in the assay with cell growth, the cell growth entry was “inhibit cell growth” and the terminal differentiation result is “induce terminal differentiation”. The “formation of tumors in mice” value in the assay on tumors was “prevent the formation of tumors in mice”.
A word on the pIC50: it is the negative decadic logarithm of the IC50, by convention in mol/L. Take `Nc1ccccc1NC(=O)CCCCCCC(=O)c1ccc(-c2ccccc2)cc1` [Compound 77, N-(2-Aminophenyl)-7-[(4-biphenyl)carbonyl]heptanamide]: the pEC50 in assay [1] is 5.00. The pIC50 in assay [2] is 5.72. Also, in assay [3] (percent inhibition at 20 μM (footnote)), the “pooled HDACs percent inhibition” value was determined as 11%.
Turning to `COC(c1ccc(N(C)C)cc1)C(C)/C=C(C)/C=C/C(=O)Nc1ccccc1N` (stereo not shown) [Compound 34, N-(2-Aminophenyl)-4,6-dimethyl-7-methoxy-7-[4-(N,N-dimethylamino)phenyl]-2,4-heptadienamide], in assay [4], the “tumor weight and volume relative to saline controls” value is “significant reduction in tumor weight and volume”. In assay [1], the pEC50 is 5.30. For the same molecule, the values for the pIC50 in assay [2] and in assay [3] were 5.15 and less than 4.00, respectively.
Take `O=C(CCCCCCC(=O)Nc1ccccc1)NO` [SAHA, suberoylanilide hydroxamic acid]: in the assay on HDAC, the HDAC activity result is “inhibited”. In addition, in the assay with cell growth, the cell growth result was “inhibit cell growth” and the terminal differentiation result is “induce terminal differentiation”. In addition, the “formation of tumors in mice” value with tumors is “prevent the formation of tumors in mice”.
Take `CC(/C=C/C(=O)Nc1ccccc1N)=C\C(C)Cc1ccc(N(C)C)cc1` (stereo not shown) [Compound 39]: the pEC50 in assay [1] was 5.00. The pIC50 in assay [2] was 5.15; in assay [3], less than 4.70.
The matching figures for `COc1ccc(C(C/C=C/C=C/C(=O)Nc2ccccc2N)OC)cc1` (stereo not shown) [Compound 18, N-(2-Aminophenyl)-7-methoxy-7-(4-methoxyphenyl)-2,4-heptadienamide]: 5.00, 6.00 and less than 4.00.
The matching figures for `COC(C/C=C/C=C/C(=O)Nc1ccccc1N)c1ccc(N(C)C)cc1` (stereo not shown) [Compound 20, N-(2-Aminophenyl)-7-methoxy-7-[4-(N,N-dimethylamino)phenyl]-2,4-heptadienamide]: 5.30, 5.52 and less than 4.70.

Source of the values: patent publication US7288567B2, “Inhibitors of histone deacetylase” (Methylgene Inc., priority 2000, dated 2007).
